Results: US20040024024A1, “Aromatic sulfone hydroxamates and their use as protease inhibitors” (priority 2001, published 2004)
Counter-ions that a name gives are not always drawn.

Key:
Human recombinant MMP-1 = biological target: T1, Human recombinant MMP-1 (Homo sapiens, UniProt P03956); test: In vitro MMP inhibition, Ki determination (fluorogenic substrate II); type: biochemical
T1 construct: made in house; host or cells: MMP-1-transfected HT-1080 cells (spent media)
T1 sequence (P03956 100-469): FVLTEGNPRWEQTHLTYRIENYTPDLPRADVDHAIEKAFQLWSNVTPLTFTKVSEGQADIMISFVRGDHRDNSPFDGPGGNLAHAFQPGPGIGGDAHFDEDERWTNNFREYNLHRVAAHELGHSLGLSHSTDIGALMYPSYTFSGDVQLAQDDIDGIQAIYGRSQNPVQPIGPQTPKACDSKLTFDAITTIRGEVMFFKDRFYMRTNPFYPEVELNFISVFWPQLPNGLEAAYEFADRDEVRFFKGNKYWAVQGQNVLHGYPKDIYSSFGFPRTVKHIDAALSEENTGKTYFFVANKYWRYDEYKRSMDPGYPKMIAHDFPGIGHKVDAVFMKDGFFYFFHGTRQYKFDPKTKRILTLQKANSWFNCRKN
Experimental: Several hydroxamates and salts thereof were analyzed in in vitro assays to determine their ability to inhibit the MMP cleavage of peptide substrates. Inhibition (Ki) and IC50 constants were calculated from the assayed hydroxamate-MMP interactions.
Human recombinant MMP-1, MMP-2, MMP-9, MMP-13, and MMP-14 were used in this assay. All enzymes were prepared in Assignee's laboratories following usual laboratory procedures. Protocols for the preparation and use of these enzymes are available in the scientific literature. See, e.g., Enzyme Nomenclature (Academic Press, San Diego, Calif., 1992) (and the citations therein). See also, Frije et al., J. Biol. Chem., 26(24), 16766-73 (1994).
The MMP-1 proenzyme was purified from the spent media of MMP-1-transfected HT-1080 cells provided by Dr. Harold Welgus of Washington University (St. Louis, Mo.). The protein was purified on a zinc chelating column.
All MMPs were activated using 4-aminophenylmercuric acetate (“APMA”, Sigma Chemical, St. Louis, Mo.) or trypsin. MMP-9 also was activated using human recombinant MMP-3 (purified in Assignee's laboratory following standard cloning and purification techniques).
Two fluorogenic, methoxycoumarin-containing polypeptide substrates were used in the MMP inhibition assays:
MCA-ArgProLeuGlyLeuDpaAlaArgGluArgNH2 (II)
Here, “Dpa” is 3-(2,4-dinitrophenyl)-L-2,3-diaminopropionyl group, and “MCA” is 7-methoxycoumarin-4-yl acetyl. Substrate (I) was purchased from Baychem (Redwood City, Calif.), and substrate II was prepared Assignee's laboratory. Substrate I was used in the IC50 determination assays, while substrate II was used in the Ki determination assays. In the absence of MMP inhibitory activity, either substrate is cleaved at the Gly-Leu peptide bond. This cleavage separates the highly fluorogenic peptide from the 2,4-dinitrophenyl quencher, thus resulting in increase of fluorescent intensity.
The stock solutions of the assayed hydroxamates (or salts thereof) were prepared in 1% dimethyl sulfoxide (DMSO). These stock solutions were diluted in Buffer A (100 mM Tris-HCl, 100 mM NaCl, 10 mM CaCl2, 0.05% polyoxyethylene 23 lauryl ether, pH 7.5) to obtain solutions with different hydroxamate concentrations, i.e., assay solutions with different concentrations of the assayed MMP inhibitory compound. The experiment controls contained the same amount of Buffer A/DMSO as the assayed sample, but contained no hydroxamate (or salt thereof).
The assays from which the Ki determinations were made were performed as follows. The assayed hydroxamate samples were incubated in separate wells of untreated white polystyrene plates (Nunc Nalgene International, Rochester, N.Y.), and analyzed on a Tecan SpectraFlour Plus plate reader. The excitation wavelength was 330 nm, and the emission wavelength—420 nm. All samples (assayed hydroxamates and controls) were incubated in separate plate wells at room temperature for 1 hr in the presence of 4 μM of MMP substrate (II). In the absence of MMP inhibitory activity, substrate II was cleaved at the Gly-Leu bond resulting in an increase of relative fluorescence. Inhibition was observed as a reduced rate of this increase in relative fluorescence. The various hydroxamates were analyzed using a single low enzyme concentration with a single substrate concentration fixed at or below the Km. This protocol is a modification of method by Knight et al., FEBS Lett., 296(3), 263-266 (1992). Apparent inhibitory constants were determined by non-linear regression of reaction velocity as a function of inhibitor and enzyme concentration using Morrison's equation, as described by Kuzmic, Anal. Biochem. 286, 45-50 (2000). Modifications were made in the non-linear regression method to allow a common control reaction rate and effective enzyme concentration to be shared between all dose-response relationships on a given assay plate. […]

Human recombinant MMP-13 = biological target: T2, Human recombinant MMP-13 (Homo sapiens, UniProt P45452); test: In vitro MMP inhibition, IC50 determination (fluorogenic substrate I); type: biochemical
T2 construct: made in house; host or cells: baculovirus / insect cells
Summary of the method: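 Fluorescence at 415 nm (excitation 328 nm) reports Gly-Leu cleavage of 4 μM quenched methoxycoumarin peptide substrate I. Human recombinant MMP-13, activated by trypsin or APMA, was incubated at room temperature with varied inhibitor concentrations in pH 7.5 Tris/NaCl/CaCl2 buffer; IC50 derived from reduced fluorescence.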

[1] = substrate (II) 4 μM, 1 hr room temperature, apparent Ki, values in parenthesis
[2] = substrate (I) 4 μM, room temperature, values not in parenthesis

SMILES	Ki (Human recombinant MMP-1; value in parenthesis) [nM]	IC50 (Human recombinant MMP-13; value outside parenthesis) [nM]	other results
O=C(NO)C1(S(=O)(=O)c2ccc(OCCCc3cccc(Cc4ccccc4)c3)cc2)CCOCC1 [Example 98]	> 10000	1.8	–
O=C(NO)C1(S(=O)(=O)c2ccc(OCCCc3cccc(-c4ccc5c(c4)OCCO5)c3)cc2)CCOCC1 [Example 627]	–	–	Ki (Human recombinant MMP-1; value in parentheses): > 10000 nM; IC50 (Human recombinant MMP-13; value outside parentheses): 14.9 nM
COCCN1CCC(C(=O)NO)(S(=O)(=O)c2ccc(OCCCc3cccc(-c4ccc(F)cc4)c3)cc2)CC1 [Example 140]	> 10000	0.5	–
O=C(NO)C1(S(=O)(=O)c2ccc(OCCCc3cccc(-c4ccc([N+](=O)[O-])cc4)c3)cc2)CCOCC1 [Example 626]	–	–	Ki (Human recombinant MMP-1; value in parentheses): > 10000 nM; IC50 (Human recombinant MMP-13; value outside parentheses): 0.4 nM
O=C(NO)C1(S(=O)(=O)c2ccc(OCCCc3cccc(-c4ccsc4)c3)cc2)CCOCC1 [Example 632]	–	–	Ki (Human recombinant MMP-1; value in parentheses): > 10000 nM; IC50 (Human recombinant MMP-13; value outside parentheses): 1.6 nM
O=C(NO)C1(S(=O)(=O)c2ccc(OCCCc3cccc(-c4ccc(OC(F)(F)F)cc4)c3)cc2)CCOCC1 [Example 147]	> 10000	28.3	–
O=C(NO)C1(S(=O)(=O)c2ccc(OCCCc3cccc(-c4ccc(F)cc4)c3)cc2)CCOCC1 [Example 39]	–	–	Ki (Human recombinant MMP-1; [1]): > 10000 nM; IC50 (Human recombinant MMP-13; [2]): 0.9 nM
O=C(NO)C1(S(=O)(=O)c2ccc(OCCc3cccc(-c4cccnc4)c3)cc2)CCOCC1 [Example 125]	3580	0.2	–
O=C(NO)C1(S(=O)(=O)c2ccc(OCCCn3nnc(-c4ccc(OC(F)(F)F)cc4)n3)cc2)CCN(CC2CC2)CC1 [Example 53]	–	–	Ki (Human recombinant MMP-1; [1]): > 10000 nM; IC50 (Human recombinant MMP-13; [2]): 1 nM
CCN1CCC(C(=O)NO)(S(=O)(=O)c2ccc(OCCCc3nc(-c4ccc(OC(F)(F)F)cc4)no3)cc2)CC1 [Example 41, 1-ethyl-N-hydroxy 4-{[4-(3-{3-[4-(trifluoromethoxy)phenyl]-1,2,4-oxadiazol-5-yl}propoxy)phenyl]sulfonyl}piperidine-4-carboxamide Hydrochloride]	–	–	Ki (Human recombinant MMP-1; [1]): > 10000 nM; IC50 (Human recombinant MMP-13; [2]): 2 nM
Cc1ccccc1-c1cccc(CCCOc2ccc(S(=O)(=O)C3(C(=O)NO)CCOCC3)cc2)c1 [Example 164]	> 10000	20	–
O=C(CCCc1ccc(S(=O)(=O)C2(C(=O)NO)CCOCC2)cc1)c1cccc(-c2ccccc2)c1 [Example 219]	5600	0.4	–
O=C(NO)C1(S(=O)(=O)c2ccc(OCCCc3cccc(-c4ccccc4O)c3)cc2)CCOCC1 [Example 636]	–	–	Ki (Human recombinant MMP-1; value in parentheses): > 10000 nM; IC50 (Human recombinant MMP-13; value outside parentheses): 3.2 nM
O=C(NO)C1(S(=O)(=O)c2ccc(OCCOc3cccc(-c4ccccc4)c3)cc2)CCOCC1 [Example 157]	> 10000	3.5	–
O=C1Nc2ccc(-c3noc(CCCOc4ccc(S(=O)(=O)C5(C(=O)NO)CCN(C6CC6)CC5)cc4)n3)cc21 [Example 142]	> 10000	7.5	–
O=C(NO)C1(S(=O)(=O)c2ccc(OCCCc3cc(-c4ccc(OC(F)(F)F)cc4)cs3)cc2)CCOCC1 [Example 608]	–	–	Ki (Human recombinant MMP-1; value in parentheses): > 10000 nM; IC50 (Human recombinant MMP-13; value outside parentheses): 6.6 nM
O=C(NO)C1(S(=O)(=O)c2ccc(OCCCc3cccc(-c4ccncc4)c3)cc2)CCOCC1 [Example 149]	> 10000	1.3	–
O=C(NO)C1(S(=O)(=O)c2ccc(OCCCc3cncc(-c4ccc(F)cc4)c3)cc2)CCOCC1 [Example 523]	–	–	Ki (Human recombinant MMP-1; value in parentheses): 3210 nM; IC50 (Human recombinant MMP-13; value outside parentheses): 0.3 nM
O=C(NO)C1(S(=O)(=O)c2ccc(OCCCc3nc(-c4cccnc4)no3)cc2)CCOCC1 [Example 578]	–	–	Ki (Human recombinant MMP-1; value in parentheses): > 10000 nM; IC50 (Human recombinant MMP-13; value outside parentheses): 2.9 nM

SMILES	Ki (Human recombinant MMP-1; value in parenthesis) [nM]	IC50 (Human recombinant MMP-13; value outside parenthesis) [nM]	other results
O=C(NO)C1(S(=O)(=O)c2ccc(OCCCc3cccc(-c4ccco4)c3)cc2)CCOCC1 [Example 97]	7360	3.3	–
O=C(NO)C1(S(=O)(=O)c2ccc(OCCCc3cccc(-c4ccccc4Cl)c3)cc2)CCOCC1 [Example 162]	> 10000	15.6	–
Cc1ccc(-c2cccc(CCCOc3ccc(S(=O)(=O)C4(C(=O)NO)CCOCC4)cc3)c2)cc1C [Example 165]	> 10000	147	–
O=C(NO)C1(S(=O)(=O)c2ccc(OCCCc3cccc(-c4cccc(F)c4)c3)cc2)CCOCC1 [Example 161]	> 10000	2.6	–
O=C(CCCOc1ccc(S(=O)(=O)C2(C(=O)NO)CCOCC2)cc1)Nc1cccc(OC(F)(F)F)c1 [Example 181]	1850	0.3	–
O=C(Cc1csc2ccccc12)NCCOc1ccc(S(=O)(=O)C2(C(=O)NO)CCOCC2)cc1 [Example 596]	–	–	Ki (Human recombinant MMP-1; value in parentheses): > 10000 nM; IC50 (Human recombinant MMP-13; value outside parentheses): 2.7 nM
Cc1ccc(-c2cccc(CCCOc3ccc(S(=O)(=O)C4(C(=O)NO)CCOCC4)cc3)c2)s1 [Example 639]	–	–	Ki (Human recombinant MMP-1; value in parentheses): > 10000 nM; IC50 (Human recombinant MMP-13; value outside parentheses): 4.3 nM
O=C(NO)C1(S(=O)(=O)c2ccc(OCCCc3cccc(-n4ccnc4)c3)cc2)CCOCC1 [Example 574]	–	–	Ki (Human recombinant MMP-1; value in parentheses): > 10000 nM; IC50 (Human recombinant MMP-13; value outside parentheses): 0.7 nM
Cc1cc(NC(=O)CCCOc2ccc(S(=O)(=O)C3(C(=O)NO)CCOCC3)cc2)ccc1OC(C)C [Example 290]	> 10000	1.1	–
CC(C)c1cccc(NC(=O)CCCOc2ccc(S(=O)(=O)C3(C(=O)NO)CCOCC3)cc2)c1 [Example 182]	6540	0.5	–
CC(C)C(=O)c1cccc(CCCOc2ccc(S(=O)(=O)C3(C(=O)NO)CCOCC3)cc2)c1 [Example 95]	> 10000	2.7	–
CN(C(=O)CCCOc1ccc(S(=O)(=O)C2(C(=O)NO)CCOCC2)cc1)c1ccc(OC(F)(F)F)cc1 [Example 249]	> 10000	5.09	–
O=C(NO)C1(S(=O)(=O)c2ccc(OCCCc3nc(-c4ccc(OC(F)(F)F)cc4)no3)cc2)CCN(C2CC2)CC1 [Example 51, 1-cyclopropyl-N-hydroxy-4-{[4-(3-{3-[4-(trifluoromethoxy)phenyl]-1,2,4-oxadiazol-5-yl}propoxy)phenyl]sulfonyl}piperidine-4-carboxamide Hydrochloride]	–	–	Ki (Human recombinant MMP-1; [1]): 5160 nM; IC50 (Human recombinant MMP-13; [2]): 0.2 nM
O=C(NO)C1(S(=O)(=O)c2ccc(OCCc3cccc(-c4ccncc4)c3)cc2)CCOCC1 [Example 113]	> 10000	0.2	–
O=C(CCCOc1ccc(S(=O)(=O)C2(C(=O)NO)CCOCC2)cc1)Nc1ccc(OC(F)(F)F)cc1 [Example 250]	1440	0.3	–
COCCN1CCC(C(=O)NO)(S(=O)(=O)c2ccc(OCCCc3nc(-c4ccccc4OC(F)(F)F)no3)cc2)CC1 [Example 152]	> 10000	11.8	–
CCc1ccccc1-c1noc(CCCOc2ccc(S(=O)(=O)C3(C(=O)NO)CCN(CCOC)CC3)cc2)n1 [Example 155]	> 10000	9.7	–
O=C(CCCOc1ccc(S(=O)(=O)C2(C(=O)NO)CCOCC2)cc1)Nc1ccc(OC(F)(F)F)cc1 [Example 228]	3940	0.2	–
